Assay results from patent US12281225B2, “Process for preparing stable polymers containing vinylimidazole” (BASF SE, priority 2018, dated 2025).

Key:
Assay type in all cases: physicochemical
[1] = Analysis of active substance: preservative concentration before and after storage in VI-containing polymer solution; conditions: for active-substance concentration, 0 d, RT: before storage; for active-substance concentration, 14 d, 40° C.: storage 14 d at 40° C.; for active-substance concentration, 28 d, 40° C.: storage 28 d at 40° C.; for active-substance concentration, 60 d 40° C.: storage 60 d at 40° C.
Description: Stability of Preservatives in VI-Containing Polymers:
The following stabilizers for VI-containing polymers (here: aqueous solution of a copolymer of vinylpyrrolidone and vinylimidazole) were tested.
MIT, BIT, CMIT, OIT, DCOIT and iodopropynyl butyl carbamate were determined by RP chromatography with UV detection after dilution of the sample to be tested. An RP18 column was used for this purpose, with an eluent composed of an acid-methanol mixture under isocratic conditions.

[2] = Physical stability; visual assessment (color, turbidity, phase separation); set-up: key: ++: no discernible change with respect to color, turbidity or phase separation; +: marginal change in color number, somewhat increased Tyndall effect but no turbidity; 0: easily discernible increase in color number and moderate turbidity−no phase separation; −: turbidity and change in color number readily discernible by visual assessment; −−: strong color change with strong turbidity and incipient phase separation
Text: Physical stability; visual assessment according to:
++=no discernible change with respect to color, turbidity or phase separation; +=marginal change in color number, somewhat increased Tyndall effect but no turbidity; 0=easily discernible increase in color number and moderate turbidity−no phase separation; − turbidity and change in color number readily discernible by visual assessment; −− strong color change with strong turbidity and incipient phase separation.
Before storage, all batches could be rated ++ (no turbidity or phase separation; no influence of the biocide on the color number of the product).

[3] = Iodine color number according to DIN 6162:2014-09
[4] = Polymer P5 (HP56) with stabilizer

CCCCCCCCCC[N+](C)(C)CCCCCCCCCC.[Cl-] [DDAC, didecyldimethylammonium chloride]
3.3: Iodine color number, 60 d 40° C. ([3]; Polymer P3 with stabilizer) | Iodine color number, start ([3]; Polymer P3 with stabilizer) | Iodine color number, 60 d 40° C. ([3]; Polymer P4 with stabilizer) | Iodine color number, start ([3]; Polymer P4 with stabilizer) | Iodine color number, 60 d 40° C. [3, 4] | Iodine color number, start [3, 4] | Iodine color number, 60 d 40° C. ([3]; Polymer P6 with stabilizer) | Iodine color number, start ([3]; Polymer P6 with stabilizer) | Iodine color number, 60 d 40° C. ([3]; Polymer P7 with stabilizer) | Iodine color number, start ([3]; Polymer P7 with stabilizer) | Iodine color number, 60 d 40° C. ([3]; Polymer P8 with stabilizer) | Iodine color number, start ([3]; Polymer P8 with stabilizer)
947 ppm: active-substance concentration, 14 d, 40° C. ([1]; in Polymer P7)
944 ppm: active-substance concentration, 28 d, 40° C. ([1]; in Polymer P9)
942 ppm: active-substance concentration, 28 d, 40° C. ([1]; in Polymer P4)
950 ppm: active-substance concentration, 0 d, RT ([1]; in Polymer P1) | active-substance concentration, 14 d, 40° C. ([1]; in Polymer P1) | active-substance concentration, 0 d, RT ([1]; in Polymer P2) | active-substance concentration, 14 d, 40° C. ([1]; in Polymer P2) | active-substance concentration, 0 d, RT ([1]; in Polymer P3) | active-substance concentration, 14 d, 40° C. ([1]; in Polymer P3) | active-substance concentration, 0 d, RT ([1]; in Polymer P4) | active-substance concentration, 14 d, 40° C. ([1]; in Polymer P4) | active-substance concentration, 0 d, RT ([1]; in Polymer P5 (HP56)) | active-substance concentration, 14 d, 40° C. ([1]; in Polymer P5 (HP56)) | active-substance concentration, 0 d, RT ([1]; in Polymer P6) | active-substance concentration, 14 d, 40° C. ([1]; in Polymer P6) | active-substance concentration, 28 d, 40° C. ([1]; in Polymer P6) | active-substance concentration, 0 d, RT ([1]; in Polymer P7) | active-substance concentration, 0 d, RT ([1]; in Polymer P8) | active-substance concentration, 14 d, 40° C. ([1]; in Polymer P8) | active-substance concentration, 0 d, RT ([1]; in Polymer P9) | active-substance concentration, 14 d, 40° C. ([1]; in Polymer P9)
930 ppm: active-substance concentration, 60 d 40° C. ([1]; in Polymer P3)
940 ppm: active-substance concentration, 28 d, 40° C. ([1]; in Polymer P1) | active-substance concentration, 60 d 40° C. ([1]; in Polymer P1) | active-substance concentration, 28 d, 40° C. ([1]; in Polymer P2) | active-substance concentration, 60 d 40° C. ([1]; in Polymer P2) | active-substance concentration, 28 d, 40° C. ([1]; in Polymer P3) | active-substance concentration, 60 d 40° C. ([1]; in Polymer P4) | active-substance concentration, 28 d, 40° C. ([1]; in Polymer P5 (HP56)) | active-substance concentration, 60 d 40° C. ([1]; in Polymer P5 (HP56)) | active-substance concentration, 28 d, 40° C. ([1]; in Polymer P8) | active-substance concentration, 60 d 40° C. ([1]; in Polymer P8) | active-substance concentration, 60 d 40° C. ([1]; in Polymer P9)
3.8: Iodine color number, start ([3]; Polymer P9 with stabilizer)
945 ppm: active-substance concentration, 28 d, 40° C. ([1]; in Polymer P7)
3.9: Iodine color number, 60 d 40° C. ([3]; Polymer P9 with stabilizer)
2.9: Iodine color number, 60 d 40° C. ([3]; Polymer P1 with stabilizer) | Iodine color number, start ([3]; Polymer P1 with stabilizer) | Iodine color number, start ([3]; Polymer P2 with stabilizer)
943 ppm: active-substance concentration, 60 d 40° C. ([1]; in Polymer P6)
938 ppm: active-substance concentration, 60 d 40° C. ([1]; in Polymer P7)
++: Physical stability, 60 d 40° C.* ([2]; Polymer P1 with stabilizer) | Physical stability, 60 d 40° C.* ([2]; Polymer P2 with stabilizer) | Physical stability, 60 d 40° C.* ([2]; Polymer P3 with stabilizer) | Physical stability, 60 d 40° C.* ([2]; Polymer P4 with stabilizer) | Physical stability, 60 d 40° C.* [2, 4] | Physical stability, 60 d 40° C.* ([2]; Polymer P6 with stabilizer) | Physical stability, 60 d 40° C.* ([2]; Polymer P7 with stabilizer) | Physical stability, 60 d 40° C.* ([2]; Polymer P8 with stabilizer) | Physical stability, 60 d 40° C.* ([2]; Polymer P9 with stabilizer)
3.0: Iodine color number, 60 d 40° C. ([3]; Polymer P2 with stabilizer)
